Results on one molecule are retold here after patent US20190124918A1, “BIOFILM FORMATION INHIBITOR AND BIOFILM FORMATION INHIBITING COMPOSITION” (KAO CORPORATION, priority 2016, published 2019).

The subject of test [1] is biofilm-forming microbe isolated from cooling water taken from a water cooling tower. In words: Biofilm inhibition test, quinone-based compound and chelating agent (OD570). The format is cell-based. The procedure:
A biofilm-forming microbe (microbe showing a OD570 value of 0.3 or more in the test for determining the amount of biofilm (the following section 2-4)) isolated from cooling water taken from a water cooling tower was cultured in R2A culture medium at 30° C. for 16 hours while shaking. The turbidity (OD600) of the resultant culture solution was measured. The culture solution was diluted with R2A culture medium to prepare a suspension of 10^3 cfu/mL.
Predetermined amounts of p-toluquinone and HEDP were weighed and solvent (MDG) was added to prepare a composition. Since citric acid and EDTA were not dissolved in MDG, they were directly added in culture solutions; at the same time, p-toluquinone was directly added to the culture solutions.
The suspension of a test microbe prepared in the above section 2-1) was added in individual wells of a 96 well microplate in an amount of 150 μL, and then, the test solutions prepared in the above section 2-2) was each added and culture was initiated.
After the 96 well microplate was subjected to stationary culture performed at 30° C. for 48 hours, the culture solution was removed and the resultant microplate was washed with water. Subsequently, each well was stained with 0.1% crystal violet and 200 μL of ethanol was added. The absorbance (OD570) was measured to obtain the amount of biofilm (BF) formed.

For test [2], the system named is cooling water taken from a water cooling tower. In words: Aqueous system model (annular reactor): amount of biofilm formed on test pieces (OD570). The format is cell-based. As to conditions: Test Example 4; 15 ppm in cooling water, 30° C.; solvent control finally beyond 0.7. The procedure:
Biofilm formation inhibitory activity of p-toluquinone (Tokyo Kasei) was evaluated by an aqueous system model using an annular reactor (Art Science Co., Ltd.) having a 100 mL-volume culture tank. In the culture tank of the annular reactor, a cylindrical rotating body rotating at a speed of 160 rounds per minute was installed. To the rotating body, 12 test pieces were attached in advance. These test pieces were taken out at predetermined time intervals and biofilm formed on the test pieces was quantified. From a water cooling tower provided on a building rooftop and actually used, cooling water was taken and supplied to the annular reactor culture vessel (maintained at 30° C.) at a flow rate of 10 mL per minute; at the same time, an ethanol solution (15 g/L) of p-toluquinone was separately supplied to the annular reactor culture vessel by a syringe pump YSP-201 (manufactured by YMC) at a flow rate of 10 μL per minute (p-toluquinone concentration in cooling water in the culture tank was 15 ppm). The test pieces (n=2) taken out from the culture tank at predetermined time intervals were stained with 0.1% crystal violet, thoroughly washed twice with physiological saline and recovered in ethanol (15 mL). The absorbance (OD570) was measured to obtain the amount of the biofilm formed. […] Thereafter, the number of bacteria cells was measured. […]

For the molecule `CC1=CC(=O)C=CC1=O` [Compound a, p-Toluquinone], the “BF inhibitory effect of combined use of HEDP and p-toluquinone compared with p-toluquinone alone” value in test [1] (Experiment No. 2 compared to Nos. 5 to 8) is “higher”. The OD570 is listed as 0.236 in test [1] (Experiment No. 12: Toluquinone 5 ppm, Citric acid 0 ppm, 0 ppm/0 ppm gave 0.329); 0.048 in test [1] (Experiment No. 13: Toluquinone 10 ppm, Citric acid 0 ppm, 0 ppm/0 ppm gave 0.329); 0.051 in test [1] (Experiment No. 14: Toluquinone 20 ppm, Citric acid 0 ppm, 0 ppm/0 ppm gave 0.329); 0.057 in test [1] (Experiment No. 15: Toluquinone 5 ppm, Citric acid 0.5 ppm, 0 ppm/0 ppm gave 0.329); 0.054 in test [1] (Experiment No. 16: Toluquinone 5 ppm, Citric acid 2.5 ppm, 0 ppm/0 ppm gave 0.329); 0.054 in test [1] (Experiment No. 17: Toluquinone 5 ppm, Citric acid 5 ppm, 0 ppm/0 ppm gave 0.329). For the same molecule, the OD570 worked out at 0.053 in test [1] (Experiment No. 18: Toluquinone 5 ppm, Citric acid 10 ppm, 0 ppm/0 ppm gave 0.329); 0.358 in test [1] (Experiment No. 21: Tuluquinone 5 ppm, EDTA 0 ppm, 0 ppm/0 ppm gave 0.407); 0.048 in test [1] (Experiment No. 22: Tuluquinone 10 ppm, EDTA 0 ppm, 0 ppm/0 ppm gave 0.407); 0.051 in test [1] (Experiment No. 23: Tuluquinone 20 ppm, EDTA 0 ppm, 0 ppm/0 ppm gave 0.407); 0.151 in test [1] (Experiment No. 24: Tuluquinone 5 ppm, EDTA 2.5 ppm, 0 ppm/0 ppm gave 0.407); 0.077 in test [1] (Experiment No. 25: Tuluquinone 5 ppm, EDTA 5 ppm, 0 ppm/0 ppm gave 0.407). This molecule also had an OD570 in test [1] (Experiment No. 26: Tuluquinone 5 ppm, EDTA 10 ppm, 0 ppm/0 ppm gave 0.407) of 0.078. In test [1] (Experiment No. 12 compared to Nos. 15 to 18), the “BF inhibitory effect of combined use of citric acid and p-toluquinone compared with p-toluquinone alone” value is “higher”. For the same molecule, the “BF inhibitory effect of combined use of EDTA and p-toluquinone compared with p-toluquinone alone” value in test [1] (Experiment No. 21 compared to Nos. 24 to 26) was “higher”. Besides, in test [2], the “amount of the biofilm formed (OD570)” value is on record as ≤ 0.2.
